Source: article PMC3794980, “Identification of Conserved and HLA Promiscuous DENV3 T-Cell Epitopes” (PLoS Neglected Tropical Diseases, 2013)
Where two headings read alike, the source gives them in different places. Where no end group is shown, it is not given here.

Experiments:
Assay in all cases: biochemical
Type in all cases: binding
[1] = biological target: DRB1*0101 (Homo sapiens, UniProt P01903+P01911, A100R/D57E/F55L/F60I/F76Y/I96L/L162R/M171V/P40L/Q125E/R42F/V115G/Y59C)
[2] = biological target: DRB1*0301 (Homo sapiens, UniProt P01903+P01911, A100K/A102G/A103R/A169T/F55Y/I96L/K41T/L162R/M171V/P40S/Q125H/Q178H/Q39Y/R42S/S66N/T106N/T262R/W38E/Y61H)
[3] = biological target: DRB1*0401 (Homo sapiens, UniProt P01903+P01911, A100K/A169T/F76Y/I96L/K127E/L162R/M171V/N62H/P40V/Q125Y/R42H/S133A/S149N/S66Y/V115G/V209L/W38E)
[4] = biological target: DRB1*0404 (Homo sapiens, UniProt P01903+P01911, A100R/A169T/F76Y/I96L/K127E/L162R/M171V/N62H/P40V/Q125Y/R42H/S133A/S149N/S66Y/V209L/W38E)
[5] = biological target: DRB1*0405 (Homo sapiens, UniProt P01903+P01911, A100R/A169T/D86S/F76Y/I96L/K127E/L162R/M171V/N62H/P40V/Q125Y/R42H/S133A/S149N/S66Y/V115G/V209L/W38E)
[6] = biological target: DRB1*0701 (Homo sapiens, UniProt P01903+P01911, A100R/A102G/A103Q/D57E/D86V/E43K/F76Y/K127E/L162R/M171V/P40G/Q125H/Q99D/R33Q/R42Y/R54Q/S133A/S66F/T210M/V115G/Y107V/Y59L/Y89S)
[7] = biological target: DRB1*0802 (Homo sapiens, UniProt P01903+P01911, A100R/A103L/A169T/F76Y/H45Y/I96F/K41T/L162R/M171V/P40S/Q125H/Q178H/Q39Y/Q99D/R218S/R42G/S66Y/V115G/W38E)
[8] = biological target: DRB1*0901 (Homo sapiens, UniProt P01903+P01911, A100R/A103E/D57H/D86V/F55Y/F60I/F76Y/I96F/K127E/L162R/M171V/P40D/Q125H/Q99R/R33Q/R42F/S133A/S66N/T210M/V115G/W38K/Y107V/Y59G/Y89S); conditions: competitive inhibition of radiolabeled standard peptide, read-out: Binding Affinity (nM) DRB1*0901
[9] = biological target: DRB1*1101 (Homo sapiens, UniProt P01903+P01911, A100R/A169T/A87E/I96F/K41T/L162R/M171V/P40S/Q125H/Q178H/Q39Y/Q99D/R42S/S66Y/T262R/V115G/W38E)
[10] = biological target: DRB1*1302 (Homo sapiens, UniProt P01903+P01911, A100E/A169T/K41T/L162R/M171V/P40S/Q125H/Q178H/Q39Y/Q99D/R42S/S66N/T262R/V115G/W38E/Y61H); conditions: competitive inhibition of radiolabeled standard peptide, read-out: Binding Affinity (nM) DRB1*1302
[11] = biological target: DRB1*1501 (Homo sapiens, UniProt P01903+P01911)
[12] = biological target: DRB3*0101 (Homo sapiens, UniProt P01903+P79483)
[13] = biological target: DRB4*0101 (Homo sapiens, UniProt P01903+P13762, G164S)
[14] = biological target: DRB5*0101 (Homo sapiens, UniProt P01903+Q30154)

Chain of DRB1*1302 (P01903 26-254 limits assumed, other chains not shown): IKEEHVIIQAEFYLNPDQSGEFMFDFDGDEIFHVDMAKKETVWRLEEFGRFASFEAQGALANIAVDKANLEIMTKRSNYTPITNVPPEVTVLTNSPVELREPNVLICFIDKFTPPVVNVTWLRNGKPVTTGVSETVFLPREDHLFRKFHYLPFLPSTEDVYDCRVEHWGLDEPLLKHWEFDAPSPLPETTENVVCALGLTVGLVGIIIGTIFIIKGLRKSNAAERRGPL
Chain of DRB1*1101 (P01903 26-254, other chains not shown): as the sequence (P01903 26-254 limits assumed, other chains not shown) above
Chain of DRB1*0301 (P01903 26-254, other chains not shown): as the sequence (P01903 26-254 limits assumed, other chains not shown) above

Work on CC[C@H](C)[C@H](NC(=O)[C@H](CC(C)C)NC(=O)[C@H](CCCNC(=N)N)NC(=O)CNC(=O)[C@@H](N)CC(N)=O)C(=O)N[C@H](C(=O)N[C@@H](C)C(=O)N[C@@H](CC(N)=O)C(=O)N1CCC[C@H]1C(=O)N[C@H](C(=O)N[C@H](C(=O)N[C@H](C(=O)N[C@@H](CCCCN)C(=O)N[C@@H](CCCCN)C(=O)N[C@@H](CCC(=O)O)C(=O)O)[C@@H](C)O)C(C)C)C(C)C)[C@@H](C)O [Envelope 346-360] yielded an IC50 [1] of 4.5 nM, an IC50 [2] of 216 nM and an IC50 [3] of 343 nM. The IC50 [4] was 15300 nM, the IC50 [5] was 6740 nM and the IC50 [6] was 68 nM. It also gave an IC50 [7] of 288 nM, an IC50 ([8]; '-' distinct from ND) of 333 nM and an IC50 [9] of 10600 nM. It also gave an IC50 ([10]; '-' distinct from ND) of 15 nM, an IC50 [11] of 332 nM and an IC50 [12] of 18300 nM. It also gave an IC50 [13] of 3000 nM.

For CC[C@H](C)[C@H](NC(=O)[C@H](Cc1c[nH]c2ccccc12)NC(=O)[C@H](Cc1ccc(O)cc1)NC(=O)CNC(=O)[C@H](CCSC)NC(=O)[C@H](CC(=O)O)NC(=O)[C@H](C)NC(=O)[C@H](Cc1c[nH]cn1)NC(=O)[C@@H](NC(=O)[C@H](C)N)C(C)C)C(=O)N[C@@H](CCC(=O)O)C(=O)N[C@@H](CO)C(=O)N[C@@H](CCC(N)=O)C(=O)N[C@@H](CCCCN)C(=O)N[C@@H](CC(N)=O)C(=O)O [NS1 193-207], the IC50 [1] was 1200 nM, the IC50 [2] was 2590 nM and the IC50 [3] was 3540 nM. The IC50 [4] was 5810 nM, the IC50 [5] was 3240 nM and the IC50 [6] was 7970 nM. For the same compound, the IC50 [7] was 12900 nM, the IC50 ([8]; '-' distinct from ND) was 9890 nM and the IC50 [9] was 13900 nM. The IC50 ([10]; '-' distinct from ND) was 33 nM, the IC50 [11] was 6340 nM and the IC50 [12] was 24 nM. The IC50 [13] was 180 nM and the IC50 [14] was 10400 nM.

CC(C)C[C@H](NC(=O)[C@H](C)NC(=O)[C@H](CC(C)C)NC(=O)[C@@H]1CCCN1)C(=O)N[C@@H](CCCCN)C(=O)N[C@@H](CCC(=O)O)C(=O)N[C@@H](Cc1ccccc1)C(=O)N[C@@H](CCCCN)C(=O)N[C@@H](CC(=O)O)C(=O)N[C@@H](Cc1ccccc1)C(=O)N[C@@H](C)C(=O)N[C@@H](C)C(=O)NCC(=O)N[C@@H](CCCNC(=N)N)C(=O)N[C@@H](CCCCN)C(=O)O [NS3 605-619] showed an IC50 [1] of 4350 nM, an IC50 [2] of 4440 nM and an IC50 [3] of 4730 nM. It also gave an IC50 [4] of 2220 nM, an IC50 [5] of 5550 nM and an IC50 [6] of 3450 nM. The IC50 [7] was 37 nM, the IC50 ([8]; DRB1*0901) was 9320 nM and the IC50 [9] was 8890 nM. It also gave an IC50 ([10]; DRB1*1302) of 19600 nM, an IC50 [11] of 28 nM and an IC50 [12] of 3380 nM. The IC50 [13] was 1360 nM and the IC50 [14] was 20 nM.

Compound CC[C@H](C)[C@H](NC(=O)[C@H](CC(N)=O)NC(=O)CNC(=O)[C@@H](NC(=O)CNC(=O)[C@H](CC(N)=O)NC(=O)[C@@H](N)CO)[C@@H](C)O)C(=O)N[C@H](C(=O)N[C@@H](CO)C(=O)N[C@@H](CO)C(=O)N[C@H](C(=O)N[C@@H](CC(N)=O)C(=O)N[C@@H](CCSC)C(=O)N[C@H](C(=O)N[C@@H](CO)C(=O)N[C@@H](CCCNC(=N)N)C(=O)N[C@@H](CC(C)C)C(=O)O)C(C)C)C(C)C)C(C)C [NS5 221-237] has an IC50 [1] of 4 nM, an IC50 [2] of 15 nM and an IC50 [3] of 1.1 nM. The IC50 [4] was 84 nM, the IC50 [5] was 25 nM and the IC50 [6] was 21 nM. For the same compound, the IC50 [7] was 5.8 nM, the IC50 ([8]; DRB1*0901) was 45 nM and the IC50 [9] was 31 nM. It also gave an IC50 ([10]; DRB1*1302) of 65 nM, an IC50 [11] of 20 nM and an IC50 [12] of 6300 nM. It also gave an IC50 [13] of 60 nM.

Compound CSCC[C@H](NC(=O)[C@@H](NC(=O)[C@H](Cc1ccccc1)NC(=O)[C@H](CCCNC(=N)N)NC(=O)[C@H](CC(N)=O)NC(=O)[C@H](CC(C)C)NC(=O)[C@H](CC(C)C)NC(=O)[C@H](CC(C)C)NC(=O)[C@H](CCCNC(=N)N)NC(=O)[C@H](CO)NC(=O)[C@@H](NC(=O)[C@@H](N)CCSC)C(C)C)[C@@H](C)O)C(=O)N[C@H](C(=O)N[C@@H](Cc1c[nH]cn1)C(=O)N[C@@H](CCCNC(=N)N)C(=O)N[C@@H](CCCNC(=N)N)C(=O)O)[C@@H](C)O [NS5 233-248] has an IC50 [1] of 108 nM, an IC50 [2] of 327 nM and an IC50 [3] of 57 nM. It also gave an IC50 [4] of 1070 nM, an IC50 [5] of 699 nM and an IC50 [6] of 97 nM. It also gave an IC50 [7] of 159 nM, an IC50 ([8]; DRB1*0901) of 569 nM and an IC50 [9] of 16 nM. It also gave an IC50 ([10]; DRB1*1302) of 34 nM, an IC50 [11] of 307 nM and an IC50 [12] of 2240 nM. The IC50 [13] was 617 nM.

Compound C[C@@H](O)[C@H](NC(=O)[C@H](CO)NC(=O)[C@H](CO)NC(=O)[C@H](Cc1c[nH]cn1)NC(=O)[C@H](CCC(=O)O)NC(=O)[C@H](CCC(=O)O)NC(=O)[C@@H](N)CCCCN)C(=O)N[C@@H](Cc1c[nH]c2ccccc12)C(=O)N[C@@H](Cc1c[nH]cn1)C(=O)N[C@@H](Cc1ccc(O)cc1)C(=O)N[C@@H](CC(=O)O)C(=O)N[C@@H](CC(=O)O)C(=O)N[C@@H](CCC(=O)O)C(=O)N[C@@H](CC(N)=O)C(=O)N1CCC[C@H]1C(=O)N[C@@H](Cc1ccc(O)cc1)C(=O)N[C@@H](CCCCN)C(=O)O [NS5 284-300] has an IC50 [1] of 2100 nM, an IC50 [2] of 9.3 nM and an IC50 [3] of 306 nM. The IC50 [4] was 18200 nM, the IC50 [5] was 8690 nM and the IC50 [6] was 2490 nM. For the same compound, the IC50 [7] was 1540 nM, the IC50 ([8]; DRB1*0901) was 8140 nM and the IC50 [9] was 1400 nM. The IC50 ([10]; DRB1*1302) was 2030 nM, the IC50 [11] was 5900 nM and the IC50 [12] was 17 nM. The IC50 [13] was 14100 nM.

For CC(C)C[C@H](NC(=O)[C@H](C)NC(=O)[C@H](CCC(=O)O)NC(=O)[C@H](Cc1ccccc1)NC(=O)[C@H](CCC(=O)O)NC(=O)[C@H](CC(C)C)NC(=O)[C@H](Cc1ccc(O)cc1)NC(=O)[C@H](CCCNC(=N)N)NC(=O)[C@H](C)NC(=O)CNC(=O)[C@H](CC(C)C)NC(=O)[C@@H](N)Cc1c[nH]c2ccccc12)C(=O)NCC(=O)N[C@@H](Cc1ccccc1)C(=O)N[C@@H](CC(C)C)C(=O)N[C@@H](CC(N)=O)C(=O)N[C@@H](CCC(=O)O)C(=O)O [NS5 477-493], the IC50 [1] was 12 nM, the IC50 [2] was 2420 nM and the IC50 [3] was 67 nM. For the same compound, the IC50 [4] was 124 nM, the IC50 [5] was 54 nM and the IC50 [6] was 26 nM. It also gave an IC50 [7] of 2280 nM, an IC50 ([8]; DRB1*0901) of 79 nM and an IC50 [9] of 710 nM. The IC50 ([10]; DRB1*1302) was 9750 nM, the IC50 [11] was 338 nM and the IC50 [12] was 26 nM. It also gave an IC50 [13] of 274 nM.

EGKVVQYENLKYTVI [Envelope 126-140] showed an IC50 [1] of 980 nM, an IC50 [2] of 692 nM and an IC50 [3] of 1380 nM. The IC50 [4] was 6050 nM, the IC50 [5] was 90 nM and the IC50 [6] was 2310 nM. The IC50 [7] was 37 nM, the IC50 ([8]; '-' distinct from ND) was 3860 nM and the IC50 [9] was 8980 nM. The IC50 ([10]; '-' distinct from ND) was 1480 nM, the IC50 [11] was 21 nM and the IC50 [12] was 2070 nM. It also gave an IC50 [13] of 59 nM and an IC50 [14] of 2470 nM.
